# Read-outs that look alike come from different tables or passages of the source.
# What was measured:
# Assay in all cases: Pull-down assay with immobilized protein and LSM libraries
# Gal-1 = molecular target: T1, Gal-1 (Homo sapiens, UniProt P09382); assay type: binding; conditions: 1:1 binding assumed, read-out: Surface mapping KD (apparent)
# T1 construct: made in house; host or cells: E. coli BL21(DE3)
# In short: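 His-tagged protein immobilized on Co-NTA resin (64 µM) in 20 mM HEPES pH 7.4, 150 mM NaCl, equilibrated 30 min at room temperature with foldamer LSM sublibraries at equimolar total concentration. Unbound fractions quantified by HPLC-MS versus protein-free resin control; apparent KD assumes 1:1 binding.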
# S100A4 = molecular target: T2, S100A4 (Homo sapiens, UniProt P26447); assay type: binding; conditions: 1:1 binding assumed, read-out: Surface mapping KD (apparent)
# T2 construct: made in house; host or cells: Escherichia coli BL21(DE3)
# In short: (§1)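 Buffers were HEPES pH 7.4 with 150 mM NaCl, plus 1 mM TCEP and 1 mM CaCl2 (50 mM HEPES) for S100A4 and S100B, 1 mM TCEP for Gal-1, and no additive for RecQ-WH. Immobilized protein at 64 µM was equilibrated 30 min with the LSM sublibrary, and unbound probes were measured by LC-MS.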
# S100B = molecular target: T3, S100B (Homo sapiens, UniProt P04271); assay type: binding; conditions: 1:1 binding assumed, read-out: Surface mapping KD (apparent)
# T3 construct: made in house; host or cells: Escherichia coli BL21(DE3)
# T3 sequence (P04271 1-92): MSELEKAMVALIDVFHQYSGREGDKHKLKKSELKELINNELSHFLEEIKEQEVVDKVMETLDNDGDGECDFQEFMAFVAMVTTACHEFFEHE
# In short: as §1
# CaM = molecular target: T4, CaM (Bos taurus, UniProt P62157); assay type: binding, bovine; conditions: 1:2 stoichiometry assumed, read-out: Surface mapping KD (apparent)
# T4 construct: made in house; host or cells: E. coli BL21 (DE3)
# Procedure: Pull-down assays with immobilized test proteins and foldameric LSM libraries were carried out. Proteins were equilibrated with LSM probes, and equilibrium bound fractions (FB) were determined from the unbound fractions measured by HPLC-MS methods. Hits were corrected with background binding of the resin. The protocol allowed all binding events to equilibrate irrespective of affinity, specificity, and binding kinetics. This was essential to judge overall druggability and promiscuity. Importantly, the concentration of protein and the total concentration of foldameric LSMs were equimolar, which minimized competition between the probes. This experimental setup approximated independent binding of individual library members. Results were visualized as heat maps of dissociation constants (Fig. 3).
# Pull-down assay and data analysis
# Pull-down assay. LSM sublibraries were screened separately as previously described.(2) Experiments were performed in the following buffers: (i) 20 mM pH 7.4 HEPES, 150 mM NaCl, 5 mM CaCl2 for CaM; (ii) 50 mM pH 7.4 HEPES, 150 mM NaCl, 1 mM TCEP, 1 mM CaCl2 for S100 proteins; (iii) 20 mM pH 7.4 HEPES, 150 mM NaCl, 1 mM TCEP for Gal-1 and (iv) 20 mM pH 7.4 HEPES, 150 mM NaCl for RecQ-WH. Assays were performed in paper filter spin cups (Thermo Scientific) with sample volumes of 100 µl. Hexahistidine-tagged proteins were immobilized on previously washed Co-NTA resin (TALON, Takara Bio USA, Inc., […]
# LSM sublibrary was added, in which each of the 64 library members were used at a concentration of 1 µM. Samples were incubated at room temperature for 30 min with shaking at 100 rpm. Then, samples were centrifuged at 1000 rpm for 2 min and washed with 100 µl pull-down buffer to remove unbound compounds.
# The control experiments were performed using the same compounds and the resin but without the immobilized protein. In case of competitive assays, competitor peptides were added to LSM sublibrary samples in 200 µM final concentration. In the case of Gal-1, lactose (competitor) was used in a concentration of 10 mM. Experiments were performed at least twice. Mean […]
# LC-MS methods and parameters. HPLC/ESI-MS analysis was used to characterize the samples from the pull-down assay. LC-MS analysis was performed with a Thermo Scientific Dionex UltiMate 3000 HPLC system interfaced to an LTQ ion trap mass spectrometer (Thermo Electron Corp., San Jose, CA, USA). Samples were injected onto an Aeris Widepore XB-C18 (250 x 4.6 mm) analytical HPLC column using gradient elution 5-80 % solution B during 25 minutes. For pull-down samples, eluent composition was 0.1% acetic acid in distilled water (Solution A) and 0.1% acetic acid in acetonitrile (solution B). Mass spectra were acquired in full scan mode from 200 to 2000 m/z range. For overlapping peaks, selective reaction monitoring (SRM) was […]
# MS data analysis. Thermo Xcalibur 2.2 software was used for peak identification and integration. The majority of the foldameric fragments could be resolved independently via HPLC-MS/MS measurements based on molecular weight, MS fragmentation pattern and retention time. Peaks of some foldamers with β3-hIle or β3-hLeu in position R2 could not be resolved, these were integrated and averaged. In the processing method, each sample component was associated to a chromatographic peak based on previously identified mass (m/z) and retention time (ref (2) and Table S7-10). Using ICIS peak detection algorithm, the general detection and integration criteria were: smoothing points: 5, baseline window: 80, area noise factor: 5, peak noise factor: 10. Using these processing setups, all raw data files were reprocessed together and analyzed. Errors in peak identification during the automatic processing were corrected manually.
# Calculation of the discussed parameters
# 1. Bound fractions (FB.) were calculated from the HPLC-MS intensity loss of the LSM probes compared to the control where no protein was immobilized to the resin: […]
# T1 sequence (P09382 whole entry): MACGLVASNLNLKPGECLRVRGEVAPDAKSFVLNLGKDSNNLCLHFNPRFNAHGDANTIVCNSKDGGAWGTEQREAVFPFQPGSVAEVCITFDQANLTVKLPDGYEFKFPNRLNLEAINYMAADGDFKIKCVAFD
# T2 sequence (P26447 whole entry): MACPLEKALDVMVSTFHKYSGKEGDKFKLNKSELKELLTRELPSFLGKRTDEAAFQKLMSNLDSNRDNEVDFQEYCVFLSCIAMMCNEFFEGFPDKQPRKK
Structure (SMILES),Kd (Gal-1; H12 library) [µM],Kd (S100B; H12 library) [µM],Kd (CaM; H12 library) [µM],other results
CC(C)[C@@H](CC(=O)N[C@H]1CCC[C@@H]1C(=O)N[C@H]1CCC[C@@H]1C(=O)N[C@@H](CCC(N)=O)CC(=O)N[C@H]1CCC[C@@H]1C(=O)N[C@H]1CCC[C@@H]1C(N)=O)NC(=O)[C@H]1CCC[C@@H]1NC(=O)[C@H]1CCC[C@@H]1N [H12 VQ],436,–,–,Kd (S100A4; H12 library): 497 µM
N=C(N)NCCC[C@@H](CC(=O)N[C@H]1CCC[C@@H]1C(=O)N[C@H]1CCC[C@@H]1C(N)=O)NC(=O)[C@H]1CCC[C@@H]1NC(=O)[C@H]1CCC[C@@H]1NC(=O)C[C@H](CC(N)=O)NC(=O)[C@H]1CCC[C@@H]1NC(=O)[C@H]1CCC[C@@H]1N [H12 NR],–,106,–,Kd (S100A4; H12 library): 245 µM
CC(C)C[C@@H](CC(=O)N[C@H]1CCCC[C@@H]1C(=O)N[C@H]1CCCC[C@@H]1C(=O)N[C@@H](CCC(=O)O)CC(=O)N[C@H]1CCCC[C@@H]1C(N)=O)NC(=O)[C@H]1CCCC[C@@H]1N [H14 LE],–,–,–,Kd (Gal-1; H14 library): 463 µM; Kd (S100A4; H14 library): 427 µM
NC(=O)[C@H]1CCC[C@@H]1NC(=O)[C@H]1CCC[C@@H]1NC(=O)C[C@H](Cc1c[nH]c2ccccc12)NC(=O)[C@H]1CCC[C@@H]1NC(=O)[C@H]1CCC[C@@H]1NC(=O)C[C@H](CO)NC(=O)[C@H]1CCC[C@@H]1NC(=O)[C@H]1CCC[C@@H]1N [H12 SW],459,114,41,–
CSCC[C@@H](CC(=O)N[C@H]1CCC[C@@H]1C(=O)N[C@H]1CCC[C@@H]1C(=O)N[C@H](CC(=O)N[C@H]1CCC[C@@H]1C(=O)N[C@H]1CCC[C@@H]1C(N)=O)Cc1ccc(O)cc1)NC(=O)[C@H]1CCC[C@@H]1NC(=O)[C@H]1CCC[C@@H]1N [H12 MY],286,102,178,–
C[C@@H](CC(=O)N[C@H]1CCC[C@@H]1C(=O)N[C@H]1CCC[C@@H]1C(N)=O)NC(=O)[C@H]1CCC[C@@H]1NC(=O)[C@H]1CCC[C@@H]1NC(=O)C[C@H](Cc1ccccc1)NC(=O)[C@H]1CCC[C@@H]1NC(=O)[C@H]1CCC[C@@H]1N [H12 FA],341,116,496,–
NC(=O)[C@H]1CCCC[C@@H]1NC(=O)C[C@H](CCC(=O)O)NC(=O)[C@H]1CCCC[C@@H]1NC(=O)[C@H]1CCCC[C@@H]1NC(=O)C[C@H](Cc1ccc(O)cc1)NC(=O)[C@H]1CCCC[C@@H]1N [H14 YE],–,–,–,Kd (S100A4; H14 library): 371 µM
CC[C@H](C)[C@@H](CC(=O)N[C@H]1CCC[C@@H]1C(=O)N[C@H]1CCC[C@@H]1C(N)=O)NC(=O)[C@H]1CCC[C@@H]1NC(=O)[C@H]1CCC[C@@H]1NC(=O)C[C@H](CC(=O)O)NC(=O)[C@H]1CCC[C@@H]1NC(=O)[C@H]1CCC[C@@H]1N [H12 DI],249,–,–,Kd (S100A4; H12 library): 449 µM
CC(C)C[C@@H](CC(=O)N[C@H]1CCC[C@@H]1C(=O)N[C@H]1CCC[C@@H]1C(N)=O)NC(=O)[C@H]1CCC[C@@H]1NC(=O)[C@H]1CCC[C@@H]1NC(=O)C[C@H](CC(=O)O)NC(=O)[C@H]1CCC[C@@H]1NC(=O)[C@H]1CCC[C@@H]1N [H12 DL],249,–,–,Kd (S100A4; H12 library): 449 µM
N=C(N)NCCC[C@@H](CC(=O)N[C@H]1CCC[C@@H]1C(=O)N[C@H]1CCC[C@@H]1C(=O)N[C@@H](CCCCN)CC(=O)N[C@H]1CCC[C@@H]1C(=O)N[C@H]1CCC[C@@H]1C(N)=O)NC(=O)[C@H]1CCC[C@@H]1NC(=O)[C@H]1CCC[C@@H]1N [H12 RK],231,146,330,–
C[C@@H](CC(=O)N[C@H]1CCC[C@@H]1C(=O)N[C@H]1CCC[C@@H]1C(=O)N[C@H](CC(=O)N[C@H]1CCC[C@@H]1C(=O)N[C@H]1CCC[C@@H]1C(N)=O)Cc1c[nH]c2ccccc12)NC(=O)[C@H]1CCC[C@@H]1NC(=O)[C@H]1CCC[C@@H]1N [H12 AW],355,62,234,–
CC(C)C[C@@H](CC(=O)N[C@H]1CCC[C@@H]1C(=O)N[C@H]1CCC[C@@H]1C(=O)N[C@H](CC(=O)N[C@H]1CCC[C@@H]1C(=O)N[C@H]1CCC[C@@H]1C(N)=O)C(C)C)NC(=O)[C@H]1CCC[C@@H]1NC(=O)[C@H]1CCC[C@@H]1N [H12 LV],468,116,270,–
NC(=O)CC[C@@H](CC(=O)N[C@H]1CCC[C@@H]1C(=O)N[C@H]1CCC[C@@H]1C(=O)N[C@H](CC(=O)N[C@H]1CCC[C@@H]1C(=O)N[C@H]1CCC[C@@H]1C(N)=O)Cc1c[nH]c2ccccc12)NC(=O)[C@H]1CCC[C@@H]1NC(=O)[C@H]1CCC[C@@H]1N [H12 QW],412,170,55,–
CSCC[C@@H](CC(=O)N[C@H]1CCC[C@@H]1C(=O)N[C@H]1CCC[C@@H]1C(=O)N[C@H](CC(=O)N[C@H]1CCC[C@@H]1C(=O)N[C@H]1CCC[C@@H]1C(N)=O)C(C)C)NC(=O)[C@H]1CCC[C@@H]1NC(=O)[C@H]1CCC[C@@H]1N [H12 MV],247,127,342,–
C[C@@H](CC(=O)N[C@H]1CCCC[C@@H]1C(=O)N[C@H]1CCCC[C@@H]1C(=O)N[C@@H](CCCNC(=N)N)CC(=O)N[C@H]1CCCC[C@@H]1C(N)=O)NC(=O)[C@H]1CCCC[C@@H]1N [H14 AR],–,–,–,Kd (CaM; H14 library): 126 µM; Kd (Gal-1; H14 library): 348 µM; Kd (S100B; H14 library): 126 µM
CC[C@H](C)[C@@H](CC(=O)N[C@H]1CCC[C@@H]1C(=O)N[C@H]1CCC[C@@H]1C(=O)N[C@@H](CCCNC(=N)N)CC(=O)N[C@H]1CCC[C@@H]1C(=O)N[C@H]1CCC[C@@H]1C(N)=O)NC(=O)[C@H]1CCC[C@@H]1NC(=O)[C@H]1CCC[C@@H]1N [H12 IR],120,39,236,–

# Second part, led by results:
Kd (Gal-1; H12 library) [µM],Kd (S100B; H12 library) [µM],Kd (CaM; H12 library) [µM],Structure (SMILES),other results
243,128,443,NC(=O)[C@H]1CCC[C@@H]1NC(=O)[C@H]1CCC[C@@H]1NC(=O)C[C@H](Cc1ccc(O)cc1)NC(=O)[C@H]1CCC[C@@H]1NC(=O)[C@H]1CCC[C@@H]1NC(=O)C[C@H](Cc1ccc(O)cc1)NC(=O)[C@H]1CCC[C@@H]1NC(=O)[C@H]1CCC[C@@H]1N [H12 YY],–
448,56,365,C[C@@H](O)[C@@H](CC(=O)N[C@H]1CCC[C@@H]1C(=O)N[C@H]1CCC[C@@H]1C(N)=O)NC(=O)[C@H]1CCC[C@@H]1NC(=O)[C@H]1CCC[C@@H]1NC(=O)C[C@H](Cc1c[nH]c2ccccc12)NC(=O)[C@H]1CCC[C@@H]1NC(=O)[C@H]1CCC[C@@H]1N [H12 WT],–
286,102,178,CSCC[C@@H](CC(=O)N[C@H]1CCC[C@@H]1C(=O)N[C@H]1CCC[C@@H]1C(N)=O)NC(=O)[C@H]1CCC[C@@H]1NC(=O)[C@H]1CCC[C@@H]1NC(=O)C[C@H](Cc1ccc(O)cc1)NC(=O)[C@H]1CCC[C@@H]1NC(=O)[C@H]1CCC[C@@H]1N [H12 YM],–

# Source: article PMC8162404, “Proteomimetic surface fragments distinguish targets by function” (Chemical Science, 2020)
